The text below walks through data of US20230099367A1 (VERSITECH LIMITED, priority 2019, published 2023).

The conditions of data set [1]: in vivo; cited from earlier work.
Data set [2] has as its target T1, SCTR (Mus musculus, UniProt Q5FWI2).
T1 construct: low expression levels of the intrinsic receptor; from tissue; host or cells: duodenum, pancreas, cerebellum and kidney of C57 mice
Description: Ex vivo cAMP assay on isolated mouse tissues. As to conditions: isolated C57 mouse tissues; secretin 1 μM, KSD179019 100 μM. Details: species or system mice (C57). The text has this: Various tissues were collected from C57 mice and were washed three times with ice-cold HBSS (Invitrogen). Tissues were minced and weighed equally into four parts. […] After drug treatment, the tissues were homogenized for measuring the concentration of the cAMP by the Lance cAMP assay kit.

The subject of data set [3] is plasma vasopressin. Description: Plasma vasopressin after intracerebroventricular injection. Format: in vivo, C57 mice. The conditions noted are these: i.c.v.; secretin 500 ng/5 μl, KSD179019 260 ng/5 μl; 0-60 min; vs ACSF. As for the experimental part: The complete protocol was performed as reported in our lab. Mice were implanted with the stainless-steel cannula with a projection to the lateral ventricular region (bregma: 0.5 mm, lateral: 1.0 mm and depth: 2.0 mm). The mice were allowed to recover for at least 5 days after the surgery. […] ACSF alone was used as a vehicle control. After drug treatment, blood was collected from the jugular vein at 0, 15, 30, 45 and 60 min. Plasma samples were collected from the whole blood by centrifugation at 4000×g for 10 min at 4° C. The samples were then used for the quantification of vasopressin by the help of ELISA using a commercial kit from (Phoenix Pharmaceuticals, Inc.) according to manufacturer instruction.

Data set [4] has as its system blood pressure. Description: Blood pressure after intraperitoneal secretin (DSI telemetry). In kind it is in vivo, C57 mice. As to conditions: secretin 0.5 μg/g BW intraperitoneal; 5 min post administration. The procedure:
The DSI telemetric device was implanted using the standardized protocol from our lab. Post recovery, blood pressure measurements, and drug administration were initiated. […] The heart rate and blood pressure were measured continually up to 150 min post-injection time.

The subject of data set [5] is blood pressure. Description: Blood pressure in spontaneously hypertensive rats (DSI telemetry). In kind it is in vivo, spontaneously hypertensive rat (SHR). The procedure: Anti-hypertensive action of KSD179019 was analyzed by continues monitoring of the blood pressure and heart rate on spontaneously hypertensive rat (SHR) by using DSI telemetric implantation. DSI device was surgically implanted using the methodology described before. […] We used conventional combination therapy i.e. Azilsartan (Az; 0.3 μg/g BW) and Chlorthalidone (CLT; 1 μg/g BW) for the comparison with […]. Az is an angiotensin II receptor antagonist and CLT is a diuretic compound. Both these compounds are commonly used in the treatment of hypertension either individually and in combination. The dosing of the combination of Az+CLT on SHR rats is used as documented in previous publications. For blood pressure monitoring, telemetric device by DSI was used, using the implantation methodology mentioned earlier.

Data set [6] concerns the target T2, human SCTR (Homo sapiens, UniProt P47872).
T2 construct: expressed in transfected cells; host or cells: CHO cells
Description: In vitro Lance cAMP assay in CHO cells overexpressing human SCTR. Format: cell-based. The procedure: As SCTR is known to have cAMP as the secondary messenger, therefore to study receptor activation, the concentration of cAMP is measured by the help of Lance cAMP assay using the assay kit from PerkinElmer, as per the standardized protocol in our lab. […] Additionally, the cells upon transfection were used for the extraction of total RNA (TriPure reagent, Invitrogen) to confirm the receptor's expression.
The selected compounds were procured from TargetMol and chemicalbook.com. […] The five compounds were then used for analyzing their dose-dependent response on the SCTR to verify their effect on the receptor.

The test system of data set [7] is salmonella strains (TA98, TA100, TA1535 and TA1537) and combination of two E.coli strains (uvrA and pKM101). Description: Ames test for mutagenicity (OECD-471). The procedure:
In vitro and in vivo toxicity testing was performed. All these test were performed using the OECD guidelines. […] The MTT assay was performed on liver cells (HepG2 cell line) and kidney cells (HEK293 cell line) as they are the major organs effected by drug toxicity. […] Additionally, the potential carcinogenicity of this drug is tested according to OECD-471 (Ames test) using the commercially available kit from XENOMETRIX. The mutation effect of the drug was tested in salmonella strains (TA98, TA100, TA1535 and TA1537) and on the combination of two E.coli strains (uvrA and pKM101) (FIGS. 8a; 8b; 8c; 8d and 8e). […] Additionally, as the drug's secondary metabolite can also have carcinogenic effect, the Ames test was performed in presence of liver enzymes which can cause the formation of secondary metabolites (S9 liver extract) (FIGS. 9a; 9b; 9c; 9d and 9e). […] The animal testing was done under an animal license from the Laboratory Animal Unit (LAU) of the University of Hong Kong for testing at acute, sub-chronic and chronic levels of exposure. The study was done based on the OECD-423 guidelines. […] Major organs like brain, heart, liver, kidney, intestine, and colon were collected and analysed. […]
In vitro and in vivo toxicity testing was performed. […] Major organs like brain, heart, liver, kidney, intestine, and colon were collected and analysed. […]

Data set [8] can be described thus: Acute oral toxicity over 14 days (OECD-423), LD50 estimation. Format: in vivo, C57BL/6J mice. As for the experimental part: In vitro and in vivo toxicity testing was performed. All these test were performed using the OECD guidelines. […] The MTT assay was performed on liver cells (HepG2 cell line) and kidney cells (HEK293 cell line) as they are the major organs effected by drug toxicity. […] Additionally, the potential carcinogenicity of this drug is tested according to OECD-471 (Ames test) using the commercially available kit from XENOMETRIX. The mutation effect of the drug was tested in salmonella strains (TA98, TA100, TA1535 and TA1537) and on the combination of two E.coli strains (uvrA and pKM101) (FIGS. 8a; 8b; 8c; 8d and 8e). […] Additionally, as the drug's secondary metabolite can also have carcinogenic effect, the Ames test was performed in presence of liver enzymes which can cause the formation of secondary metabolites (S9 liver extract) (FIGS. 9a; 9b; 9c; 9d and 9e). […] The animal testing was done under an animal license from the Laboratory Animal Unit (LAU) of the University of Hong Kong for testing at acute, sub-chronic and chronic levels of exposure. The study was done based on the OECD-423 guidelines. […] The test was done on 6 animals in two batches in both males and females. The body weight change remained under 2 grams (FIG. 11) which is normal growth for 9 weeks old C57BL/6J (https://www.jax.org/jax-mice-and-services/strain-data-sheet-pages/body-weight-chart-000664#). […] The animals were subjected to histological analysis post sacrificing on day 14. Major organs like brain, heart, liver, kidney, intestine, and colon were collected and analysed. […] However, in order to determine a dose for sub-chronic and chronic studies, according to OECD recommendations, 3 animals were administered 5000 mg/kg BW of drug in a single administration. […] During the 14 day observation the animals remained healthy with no change in body weight and body temperature (FIG. 13).
In vitro and in vivo toxicity testing was performed. All tests were performed using the OECD guidelines. […] The MTT assay was performed on liver cells (HepG2 cell line) and kidney cells (HEK293 cell line) as they are the major organs effected by drug toxicity. […] Additionally, the potential carcinogenicity of this drug is tested according to OECD-471 (Ames test) using the commercially available kit from XENOMETRIX. The mutation effect of the drug was tested in salmonella strains (TA98, TA100, TA1535 and TA1537) and on the combination of two E.coli strains (uvrA and pKM101) (FIGS. 19a; 19b; 19c; 19d and 19e). […] Additionally, as the drug's secondary metabolite can also have carcinogenic effect, the Ames test was performed in presence of liver enzymes which can cause the formation of secondary metabolites (S9 liver extract) (FIGS. 20a; 20b; 20c; 20d and 20e). […] The animal testing was done under an animal license from the Laboratory Animal Unit (LAU) of the University of Hong Kong for testing at acute, sub-chronic and chronic levels of exposure. The study was done based on the OECD-423 guidelines. […] The test was done on 6 animals in two batches in both males and females. The body weight change remained under 2 grams (FIG. 21) which is normal growth for 9 weeks old C57BL/6J (https://www.jax.org/jax-mice-and-services/strain-data-sheet-pages/body-weight-chart-000664#). […] The animals were subjected to histological analysis post sacrificing on day 14. Major organs like brain, heart, liver, kidney, intestine, and colon were collected and analysed. […] However, in order to determine a dose for sub-chronic and chronic studies, according to OECD recommendations, 3 animals were administered 5000 mg/kg BW of drug in a single administration. […] During the 14 day observation the animals remained healthy with no change in body weight and body temperature (FIG. 23).

The mark [9] stands for this setting: 14 days after 2000 mg/kg BW oral.

Ends that are not written are not given here.

T2 sequence (P47872 23-440): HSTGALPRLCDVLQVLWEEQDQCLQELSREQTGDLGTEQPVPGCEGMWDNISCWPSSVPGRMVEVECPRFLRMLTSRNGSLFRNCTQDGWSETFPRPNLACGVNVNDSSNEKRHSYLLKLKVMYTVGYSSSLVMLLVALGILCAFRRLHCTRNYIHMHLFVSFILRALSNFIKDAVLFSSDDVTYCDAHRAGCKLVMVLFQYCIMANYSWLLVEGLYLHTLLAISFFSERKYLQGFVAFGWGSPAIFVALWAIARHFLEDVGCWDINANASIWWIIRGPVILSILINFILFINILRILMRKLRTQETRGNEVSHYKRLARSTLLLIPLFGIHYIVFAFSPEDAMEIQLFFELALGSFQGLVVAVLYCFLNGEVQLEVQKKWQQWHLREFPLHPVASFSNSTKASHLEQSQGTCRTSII
T1 sequence (Q5FWI2 29-447): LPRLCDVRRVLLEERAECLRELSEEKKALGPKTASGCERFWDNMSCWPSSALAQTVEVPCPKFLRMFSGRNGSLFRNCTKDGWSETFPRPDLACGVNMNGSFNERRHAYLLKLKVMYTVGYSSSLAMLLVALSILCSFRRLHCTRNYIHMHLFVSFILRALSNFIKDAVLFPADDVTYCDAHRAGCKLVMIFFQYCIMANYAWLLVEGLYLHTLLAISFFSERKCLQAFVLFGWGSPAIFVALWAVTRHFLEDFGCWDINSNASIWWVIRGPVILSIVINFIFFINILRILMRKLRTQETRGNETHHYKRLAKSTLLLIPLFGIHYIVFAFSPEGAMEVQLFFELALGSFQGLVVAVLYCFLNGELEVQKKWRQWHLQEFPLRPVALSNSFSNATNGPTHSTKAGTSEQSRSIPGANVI

In the case of “SecreFlo: synthetic secretin peptide analog (HSDGTFTSELSRLRDSARLQRLLQGLV; ends and bridges not checked; UniProt P63298 33-59, looked up)”, the half-life in circulation in data set [1] is recorded as 20 min.

On to “ChiRhoStim: synthetic secretin peptide analog”, for which, in data set [1], the half-life in circulation is recorded as 45 min.

Turning to `CC(C)C[C@H](NC(=O)CNC(=O)[C@H](CCC(N)=O)NC(=O)[C@H](CC(C)C)NC(=O)[C@H](CC(C)C)NC(=O)[C@H](CCCNC(=N)N)NC(=O)[C@H](CCC(N)=O)NC(=O)[C@H](CC(C)C)NC(=O)[C@H](CCCNC(=N)N)NC(=O)[C@H](C)NC(=O)CNC(=O)[C@H](CCC(=O)O)NC(=O)[C@H](CCCNC(=N)N)NC(=O)[C@H](CC(C)C)NC(=O)[C@H](CCCNC(=N)N)NC(=O)[C@H](CO)NC(=O)[C@H](CC(C)C)NC(=O)[C@H](CCC(=O)O)NC(=O)[C@H](CO)NC(=O)[C@@H](NC(=O)[C@H](Cc1ccccc1)NC(=O)[C@@H](NC(=O)CNC(=O)[C@H](CC(=O)O)NC(=O)[C@H](CO)NC(=O)[C@@H](N)Cc1c[nH]cn1)[C@@H](C)O)[C@@H](C)O)C(=O)N[C@H](C(N)=O)C(C)C` [secretin, reference compound], in data set [2], the “cAMP production from duodenum, cerebellum and pancreas” value is given as “able to stimulate cAMP production”. Further, the “plasma Vp (vasopressin) concentration” value in data set [3] is “significant increase in plasma Vp”. In addition, the “systolic and diastolic blood pressure drop” value in data set [4] is listed as “blood pressure drop was significant”. For the same compound, the “duration of blood pressure reduction” value in data set [5] (intravenous injection of secretin peptide) is “approximately 10 min”. Moreover, the half-life in circulation entry in data set [1] is listed as “approximately 2 min”.

For the compound `c1ccc2c(Oc3nc(Nc4ccc(N5CCOCC5)cc4)c4ncn(C5CCCCC5)c4n3)cccc2c1` [KSD179019, puromorphamine], the “efficacy, % of maximal cAMP (of secretin)” value in data set [6] (SCT with KSD179019 (100 μM), maximal cAMP by SCT at 1 μM) was found to be 131.9%. Also, the “cAMP concentration compared to basal level (agonist screening)” value in data set [6] (compound 100 μM, CHO cells overexpressing human SCTR) is on record as “low but statistically significant increase in cAMP concentration”. Moreover, in data set [6] (compound (10 μM in FIG. 6 legend, 100 μM elsewhere in the source) with 1 μM secretin), the “cAMP response together with secretin (antagonist screening)” value was “potentiated the effect of secretin with significantly higher cAMP response”. Also, the “dose-dependent effect on secretin cAMP stimulation” value in data set [6] (different secretin concentrations plus KSD179019 100 μM) is given as “dose-dependent potentiation of secretin on cAMP stimulation”. In addition, in data set [2], the “cAMP production from duodenum, cerebellum and pancreas” value is given as “able to stimulate cAMP production”. Further, in data set [3], the “plasma Vp (vasopressin) concentration” value is “significant increase in plasma Vp”. Further, in data set [5] (SHR rats), the “hypotensive effect, times longer than combination therapy (Az and CLT)” value worked out at 3 times; the “hypotensive effect, times longer than secretin peptide” value turned out to be 360 times. In data set [5] (SHR, 0.26 μg/g BW tail vein (FIG. 12C)), the “time that reduction in blood pressure lasted significantly” value is recorded as “up to 20 hours”. In addition, the blood pressure reduction result in data set [5] (SHR, 0.26 μg/g BW tail vein injection, vs saline) is “consistent blood pressure reduction”. Besides, in data set [5] (SHR, KSD179019, peaked at 40 hours), the “drop in blood pressure at peak” value was 10%. The “reduction in mean arterial blood pressure” value in data set [5] (SHR, intravenous 0.26 μg/g BW, up to 60 hours post administration) is on record as “approximately 10%”. For the same compound, the “reduction of MABP” value in data set [5] (SHR, intravenous, at 40 and 60 hours (FIG. 13B, N=2)) is reported as 10%. Besides, in data set [5] (SHR, oral 30, 50 and 80 mg/kg BW (FIG. 17)), the “time window of statistically significant drops in diastolic and systolic blood pressure” value was 20 to 50 h. Moreover, the “time window of statistically significant drops in diastolic and systolic blood pressure” value in data set [5] (SHR, tail-vein 0.26 μg/g body weight (FIG. 16)) lay within 20 to 50 h. Besides, the “duration of hypotensive effect post administration” value in data set [5] (SHR, until blood pressure recovered / effect still observed) was “up to 60 hours”. In addition, the “carcinogenic potential of drug or metabolites, Ames test” value in data set [7] (in presence of S9 liver extract) is listed as “no carcinogenic potential”. Moreover, in data set [7] (without S9 liver extract), the “mutation effect, Ames test” value was “No mutational effect”. Moreover, in data set [8] (5000 mg/kg BW single administration, 14 day observation), the “fatal or toxic effects” value is on record as “no fatal or toxic effects were observed”. Also, in data set [8] (14 day after single oral dose of 2000 mg/kg BW), the “overall health of animals” value is “no effect on the overall health of animals”. For the same compound, in data set [8] (setting [9]), the body temperature result is on record as “remained constant” and the body weight change entry is “under 2 grams”. The “histological analysis of major organs (necrosis)” value in data set [8] (day 14, brain, heart, liver, kidney, intestine, colon, 2000 mg/kg BW) was “None of these organs were observed to have any signs of necrosis”. Besides, the LD50 in data set [8] (single oral administration, male and female mice, estimated, no fatality at 2000 mg/kg BW) is given as 2000-5000 mg/kg BW.
